Among the data in US7723329B2, “Substituted-3-sulfonylindazole derivatives as 5-hydroxytryptamine-6 ligands” (Wyeth LLC, priority 2005, dated 2010) are Ki values, retold here.

Where a name gives a salt, the structure may show the parent alone. Where only a bound is given, the exact number is not on record here.

The target in the experiment is T1, human cloned 5-HT6 receptors (Homo sapiens, UniProt P50406).
T1 construct: expressed in transfected cells; host or cells: HeLa cells
The experiment in a line: 5-HT6 binding affinity, [3H]-LSD displacement. Conditions: membranes of Hela cells expressing human cloned 5-HT6 receptors; [3H]-LSD 3.0 nM; 120 minutes at room temperature. The method, then:
The affinity of test compounds for the serotonin 5-HT6 receptor was evaluated in the following manner. Cultured Hela cells expressing human cloned 5-HT6 receptors were harvested and centrifuged at low speed (1,000×g) for 10.0 minutes to remove the culture media. The harvested cells were suspended in half volume of fresh physiological phosphate buffered saline solution and recentrifuged at the same speed. This operation was repeated. The collected cells were then homogenized in ten volumes of 50 mM Tris.HCl (pH 7.4) and 0.5 mM EDTA. The homogenate was centrifuged at 40,000×g for 30.0 min and the precipitate was collected. The obtained pellet was resuspended in 10 volumes of Tris.HCl buffer and recentrifuged at the same speed. The final pellet was suspended in a small volume of Tris.HCl buffer and the tissue protein content was determined in aliquots of 10-25 μl volumes. […] The volume of the suspended cell membranes was adjusted to give a tissue protein concentration of 1.0 mg/ml of suspension. The prepared membrane suspension (10 times concentrated) was aliquoted in 1.0 ml volumes and stored at −70° C. until used in subsequent binding experiments.
The bound complex caught on the filter disk was allowed to air dry and the radioactivity is measured in a Packard TopCount® equipped with six photomultiplier detectors, after the addition of 40.0 μl Microscint®-20 scintillant to each shallow well. The unifilter plate was heat-sealed and counted in a PackardTopCount® with a tritium efficiency of 31.0%.
Specific binding to the 5-HT6 receptor was defined as the total radioactivity bound less the amount bound in the presence of 10.0 μM unlabeled methiothepin. Binding in the presence of varying concentrations of test compound was expressed as a percentage of specific binding in the absence of test compound. The results were plotted as log % bound versus log concentration of test compound. […] A linear regression line of data points was plotted, from which the IC50 value is determined and the Ki value is determined based upon the following equation: Ki=IC50/(1+L/KD) where L was the concentration of the radioactive ligand used and KD is the dissociation constant of the ligand for the receptor, both expressed in nM.

A word on the Ki: it is a measure of affinity in units of concentration, obtained from inhibition or displacement. Low readings indicate higher affinity, high ones lower affinity.

T1 sequence (P50406 whole entry): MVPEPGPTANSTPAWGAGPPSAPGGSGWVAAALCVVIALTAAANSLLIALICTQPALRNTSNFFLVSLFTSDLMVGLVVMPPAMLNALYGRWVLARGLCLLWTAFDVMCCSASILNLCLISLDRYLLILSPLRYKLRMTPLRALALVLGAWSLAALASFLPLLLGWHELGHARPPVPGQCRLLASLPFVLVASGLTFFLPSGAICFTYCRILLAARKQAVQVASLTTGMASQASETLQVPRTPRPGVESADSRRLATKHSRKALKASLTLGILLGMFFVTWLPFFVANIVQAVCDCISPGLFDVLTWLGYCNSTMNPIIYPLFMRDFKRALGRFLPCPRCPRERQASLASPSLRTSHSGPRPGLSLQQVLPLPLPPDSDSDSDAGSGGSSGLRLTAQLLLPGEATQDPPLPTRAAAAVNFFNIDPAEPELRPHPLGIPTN

`CCN(CC)CCOc1cc(F)cc2c(S(=O)(=O)c3cccc4ccccc34)n[nH]c12` [Example 116] returned an inhibition constant Ki of 11 to 25 nM.

Take `O=S(=O)(c1cccc2ccccc12)c1nn(Cc2ccccc2)c2ccc(OCCN3CCCC3)cc12` [Example 52, 1-Benzyl-3-(naphthalene-1-sulfonyl)-5-(2-pyrrolidin-1-yl-ethoxy)-1H-indazole]: the inhibition constant Ki was greater than 45 nM.

In turn, `CNCCCOc1cccc2c(S(=O)(=O)c3cccc4ccccc34)nn(Cc3cccc(Cl)c3)c12` [Example 128] had a Ki greater than 45 nM.

The molecule `CN(C)CCOc1cccc2c(S(=O)(=O)c3cccc4ccccc34)nn(C)c12` [Example 96] displayed a Ki greater than 45 nM.

Molecule `CCN(CC)CCC(=O)Nc1cccc2c(S(=O)(=O)c3cccc4ccccc34)n[nH]c12` [Example 166, 3-Diethylamino-N-[3-(naphthalene-1-sulfonyl)-1H-indazol-7-yl]-propionamide hydrochloride] registered an inhibition constant Ki of 26 to 35 nM.

The molecule `CNCCCOc1cccc2c(S(=O)(=O)c3cccc4ccccc34)n[nH]c12` [Example 134] had a Ki of 11 to 25 nM.

Molecule `O=S(=O)(c1cccc2ccccc12)c1n[nH]c2c(OCCN3CCCC3)cccc12` [Example 81] yielded a Ki of 0.01 to 10 nM.

In turn, `NCCNc1ccc2[nH]nc(S(=O)(=O)c3cccc4ccccc34)c2c1` [Example 157, N1-[3-(Naphthalene-1-sulfonyl)-1H-indazol-5-yl]-ethane-1,2-diamine dihydrochloride] yielded a Ki of 0.01 to 10 nM.

As to `CCN(CC)CCOc1cccc2c(S(=O)(=O)c3ccccc3)nn(C)c12` [Example 103], the Ki is greater than 45 nM.

For the molecule `CCN(CC)CCOc1cc(F)cc2c(S(=O)(=O)c3cccc4ccccc34)nn(Cc3cccc(Cl)c3)c12` [Example 110], the inhibitory constant (Ki) was greater than 45 nM.

In turn, `CC(C)NCCOc1ccc2c(c1)c(S(=O)(=O)c1cccc3ccccc13)nn2Cc1ccccc1` [Example 49, {2-[1-Benzyl-3-(naphthalene-1-sulfonyl)-1H-indazol-5-yloxy]-ethyl}-isopropyl-amine] returned a Ki of 26 to 35 nM.

In the case of `O=S(=O)(c1cccc2ccccc12)c1n[nH]c2ccc(OCCCN3CCCC3)cc12` [Example 23, 3-(Naphthalene-1-sulfonyl)-5-(3-pyrrolidin-1-yl-propoxy)-1H-indazole], the Ki is 0.01 to 10 nM.

Regarding `NCCCCc1ccc2[nH]nc(S(=O)(=O)c3cccc4ccccc34)c2c1` [Example 189, {4-[3-(Naphthylsulfonyl)-1H-indazol-5-yl]butyl}amine hydrochloride], the Ki was 0.01 to 10 nM.

For the molecule `CN(C)CCOCc1ccc2[nH]nc(S(=O)(=O)c3cccc4ccccc34)c2c1` [Example 156, N,N-Dimethyl-2-{[3-(1-naphthylsulfonyl)-1H-indazol-5-yl]methoxy}ethanamine], the Ki lay in the range of 0.01 to 10 nM.

For the molecule `CCCCNCCOc1cccc2c(S(=O)(=O)c3ccccc3)n[nH]c12` [Example 91], the Ki was 0.01 to 10 nM.

Molecule `CCN(CC)CCOc1ccc2c(c1)c(S(=O)(=O)c1cccc3ccccc13)nn2C` [Example 43, Diethyl-{2-[1-methyl-3-(naphthalene-1-sulfonyl)-1H-indazol-5-yloxy]-ethyl}-amine] came in with an inhibition constant Ki of 0.01 to 10 nM.

`CCNCCCOc1ccc2[nH]nc(S(=O)(=O)c3cccc4ccccc34)c2c1` [Example 16, Ethyl-{3-[3-(naphthalene-1-sulfonyl)-1H-indazol-5-yloxy]-propyl}-amine] displayed a Ki of 0.01 to 10 nM.

`Cn1nc(S(=O)(=O)c2ccccc2)c2cccc(OCCN3CCCCC3)c21` [Example 105]: the inhibition constant Ki is greater than 45 nM.

The molecule `CCN(CC)CCCCOc1ccc2[nH]nc(S(=O)(=O)c3cccc4ccccc34)c2c1` [Example 66] gave a Ki of 0.01 to 10 nM.

In the case of `C[C@@H]1CN(Cc2ccc3[nH]nc(S(=O)(=O)c4cccc5ccccc45)c3c2)CCN1` [Example 200], the inhibition constant (Ki) fell in the range of 0.01 to 10 nM.

The molecule `NCCNc1ccc2c(S(=O)(=O)c3cccc4ccccc34)n[nH]c2c1` [Example 170, N1-[3-(Naphthalene-1-sulfonyl)-1H-indazol-6-yl]-ethane-1,2-diamine dihydrochloride] yielded a Ki of 11 to 25 nM.

For the molecule `CNCCOc1cc(OC)cc2c(S(=O)(=O)c3cccc4ccccc34)n[nH]c12` [Example 124], the Ki lay within 11 to 25 nM.

Turning to `O=S(=O)(c1ccccc1)c1n[nH]c2ccc(OCCNC3CC3)cc12` [Example 8, [2-(3-Benzenesulfonyl-1H-indazol-5-yloxy)-ethyl]-cyclopropyl-amine], the inhibition constant (Ki) is 26 to 35 nM.

Regarding `O=S(=O)(c1cccc2ccccc12)c1n[nH]c2ccc(OCCCNC3CCCC3)cc12` [Example 21, Cyclopentyl-{3-[3-(naphthalene-1-sulfonyl)-1H-indazol-5-yloxy]-propyl}-amine], the Ki was in the range of 0.01 to 10 nM.

In turn, `O=S(=O)(c1cccc2ccccc12)c1n[nH]c2ccc(OCCCCN3CCCCC3)cc12` [Example 61, 3-(1-naphthylsulfonyl)-5-(4-piperidin-1-ylbutoxy)-1H-indazole] returned a Ki of 0.01 to 10 nM.

`CNCCOc1cccc2c(S(=O)(=O)c3ccccc3)nn(C)c12` [Example 101] displayed a Ki of 11 to 25 nM.

For the molecule `O=S(=O)(c1ccccc1)c1n[nH]c2ccc(OCCNC3CCCC3)cc12` [Example 9, 3-Benzenesulfonyl-5-(2-cyclopentyl-1-yl-ethoxy)-1H-indazole], the inhibition constant Ki is 11 to 25 nM.

`CN(C)CCCOc1cccc2c(S(=O)(=O)c3cccc4ccccc34)nn(Cc3cccc(Cl)c3)c12` [Example 130] registered a Ki greater than 45 nM.

Take `CCNCCOc1cccc2c(S(=O)(=O)c3cccc4ccccc34)n[nH]c12` [Example 79]: the Ki fell in the range of 11 to 25 nM.

For the molecule `O=S(=O)(c1cccc2ccccc12)c1n[nH]c2ccc(OCCNC3CCCC3)cc12` [Example 35, Cyclopentyl-{2-[3-(naphthalene-1-sulfonyl)-1H-indazol-5-yloxy]-ethyl}-amine], the Ki lay in the range of 0.01 to 10 nM.

With `O=S(=O)(c1cccc2ccccc12)c1n[nH]c2ccc(CN[C@H]3CCNC3)cc12` [Example 154, (3S)—N-{([3-(1-Naphthylsulfonyl)-1H-indazol-5-yl]methyl}pyrrolidin-3-amine Hydrochloride], the Ki fell in the range of 11 to 25 nM.

In turn, `NCCOc1cccc2c(S(=O)(=O)c3cccc4ccccc34)n[nH]c12` [Example 76, (2-{[3-(1-naphthylsulfonyl)-1-H-indazol-7-yl]oxy}ethyl)amine] showed a Ki of 0.01 to 10 nM.

For the molecule `O=S(=O)(c1ccccc1)c1n[nH]c2c(CCNC3CC3)cccc12` [Example 172, N-{2-[3-(phenylsulfonyl)-1H-indazol-7-yl]ethyl}cyclopropanamine hydrochloride], the inhibition constant (Ki) was 11 to 25 nM.

Consider `CCNCCOc1ccc2[nH]nc(S(=O)(=O)c3cccc4ccccc34)c2c1` [Example 32, Ethyl-{2-[3-(naphthalene-1-sulfonyl)-1H-indazol-5-yloxy]-ethyl}-amine], for which the inhibitory constant (Ki) was in the range of 0.01 to 10 nM.

Molecule `CNCCOc1cccc2c(S(=O)(=O)c3ccccc3)n[nH]c12` [Example 88] gave an inhibition constant (Ki) of 0.01 to 10 nM.

`NCCOc1cccc2c(S(=O)(=O)c3cccc4ccccc34)nn(Cc3cccc(Cl)c3)c12` [Example 69, (2-{[1-(3-Chlorobenzyl)-3-(1-naphthylsulfonyl)-1-H-indazol-7-yl]oxy}ethyl) amine]: the inhibition constant Ki lay in the range of 26 to 35 nM.

`O=S(=O)(c1cccc2ccccc12)c1n[nH]c2c(OCCN3CCCC3)cc(F)cc12` [Example 118] came in with a Ki of 0.01 to 10 nM.

In turn, `Cn1nc(S(=O)(=O)c2cccc3ccccc23)c2cccc(OCCN3CCCCC3)c21` [Example 99] yielded a Ki of 0.01 to 10 nM.

The molecule `CCNCCOc1cc(F)cc2c(S(=O)(=O)c3cccc4ccccc34)n[nH]c12` [Example 114] came in with a Ki of 0.01 to 10 nM.

The molecule `CN(C)CCc1ccc2[nH]nc(S(=O)(=O)c3ccccc3)c2c1` [Example 176, N,N-Dimethyl-N-{2-[3-(phenylsulfonyl)-1H-indazol-5-yl]ethyl}amine hydrochloride] yielded a Ki of 11 to 25 nM.

The molecule `CCCCNCCOc1cccc2c(S(=O)(=O)c3cccc4ccccc34)nn(C)c12` [Example 98] returned an inhibition constant (Ki) of 26 to 35 nM.

For `O=S(=O)(c1ccccc1)c1nn(Cc2cccc(Cl)c2)c2c(OCCN3CCCC3)cccc12` [Example 86], the Ki lay within 26 to 35 nM.

Take `O=S(=O)(c1cccc2ccccc12)c1n[nH]c2ccc(OCCN3CCCCC3)cc12` [Example 38, 3-(Naphthalene-1-sulfonyl)-5-(2-piperidin-1-yl-ethoxy)-1H-indazole]: the inhibition constant Ki fell in the range of 0.01 to 10 nM.

Regarding `CN(C)CCCCOc1ccc2[nH]nc(S(=O)(=O)c3cccc4ccccc34)c2c1` [Example 64], the Ki lay within 0.01 to 10 nM.

For `O=S(=O)(c1ccccc1)c1n[nH]c2c(OCCN3CCCCC3)cccc12` [Example 93], the Ki fell in the range of 0.01 to 10 nM.

On to `CN(C)CCNC(=O)c1ccc2[nH]nc(S(=O)(=O)c3cccc4ccccc34)c2c1` [Example 151, N-[2-(Dimethylamino)ethyl]-3-(1-naphthylsulfonyl)-1H-indazole-5-carboxamide], for which the inhibition constant Ki is 0.01 to 10 nM.
